# Measurements from patent US8592448B2 (OSI Pharmaceuticals, LLC, priority 2008, dated 2013).
# Test system: MKN45 cells
# Assay: MKN45 cell proliferation assay (CellTiter-Glo)
# Format: cell-based
# Conditions: Homo sapiens, MKN-45, 72 h, MKN45 cell line, 3 days incubation, at least duplicate experiments, read-out: Prolif. IC50
# Method: The effect of inhibitors on the proliferation of MKN45 cells was determined using the following protocol. MKN45 cells were plated in Corning 3917 96-well white tissue culture treated plates in growth medium (RPMI, 10% FCS) at a density of 5000 cells/well in a total volume of 135 μL and incubated at 37° C., 5% CO2, 95% humidity overnight. The following day, one-tenth volume of a 10× concentration of compounds was added to the wells in an 8-point dilution series. The dilution series was composed of an initial 1:5 dilution of a 10 mM stock of compound in DMSO, followed by serial 1:4 dilutions in DMSO, then a 1:20 dilution in growth medium prior to the 1:10 dilution into the cell plate. Final DMSO concentration on the cells was 0.1%, there were control wells treated with both 0.1% DMSO and no DMSO. The typical dilution range is 10 μM to 0.6 nM. Once the compound was added to the cells, plates were incubated for 3 days at 37° C., 5% CO2 at 95% humidity. On the third day, after allowing all cells and reagents to come to room temperature, 25 μL of CellTiter-Glo reagent (Promega # G7573) was added to the wells. Plates were shaken on a platform for 10 minutes prior to reading luminescence for 0.1 seconds. The signal of the control wells was taken as 100% growth and growth inhibition was expressed as percent of control. IC50 values were determined from the percent of control data using a standard four-parameter model.
# (§1) The IC50 values of exemplary compounds of the present invention determined in a cell proliferation assay using the MKN45 cell line according to the procedures described herein in at least duplicate experiments are abbreviated as follows and are shown in Table 2: A, IC50≦0.1 μM; B, 0.1 μM<IC50≦1 μM; C, 1 μM<IC50≦10 μM; D, IC50>10 μM; ND, not determined. The Example # of Table 2 corresponds to the compound example number as illustrated in the Examples section.
row,Compound,IC50 [nM]
1,"CC(c1c(Cl)ccc(F)c1Cl)c1c[nH]c2ncc(-c3ccc(C(N)=O)cc3)cc12 (centres unmarked) [Example 14, 4-{3-[1-(2,6-Dichloro-3-fluorophenyl)ethyl]-1H-pyrrolo[2,3-b]pyridin-5-yl}benzamide]",1000 to 10000
2,"CC(c1c(Cl)ccc(F)c1Cl)c1c[nH]c2ncc(C3=CCN(S(N)(=O)=O)CC3)cc12 (centres unmarked) [Example 46, 4-{3-[1-(2,6-Dichloro-3-fluorophenyl)ethyl]-1H-pyrrolo[2,3-b]pyridin-5-yl}-3,6-dihydro-2H-pyridine-1-sulfonic acid amide]",100 to 1000
3,"CC(c1c(Cl)ccc(F)c1Cl)c1c[nH]c2ncc(-c3ccc(N4CCOCC4)cc3)cc12 (centres unmarked) [Example 25, 3-[1-(2,6-Dichloro-3-fluorophenyl)ethyl]-5-(4-morpholin-4-ylphenyl)-1H-pyrrolo[2,3-b]pyridine]",100 to 1000
4,"CC(c1c(Cl)ccc(F)c1Cl)c1c[nH]c2ncc(-c3cncnc3)cc12 (centres unmarked) [Example 12, 3-[1-(2,6-Dichloro-3-fluorophenyl)ethyl]-5-pyrimidin-5-yl-1H-pyrrolo[2,3-b]pyridine]",1000 to 10000
5,"CC(c1c(Cl)ccc(F)c1Cl)c1c[nH]c2ncc(-c3ccc(NS(C)(=O)=O)cc3)cc12 (centres unmarked) [Example 17, N-(4-{3-[1-(2,6-Dichloro-3-fluorophenyl)ethyl]-1H-pyrrolo[2,3-b]pyridin-5-yl}phenyl)methanesulfonamide]",1000 to 10000
6,"CC(=O)Nc1ccc(-c2cnc3[nH]cc(C(C)c4c(Cl)ccc(F)c4Cl)c3c2)cc1 (centres unmarked) [Example 10, N-(4-{3-[1-(2,6-Dichloro-3-fluorophenyl)ethyl]-1H-pyrrolo[2,3-b]pyridin-5-yl}phenyl)acetamide]",1000 to 10000
7,"CC(c1c(Cl)ccc(F)c1Cl)c1c[nH]c2ncc(-c3ccc(C(=O)NC4CCCCC4)cc3)cc12 (centres unmarked) [Example 21, N-Cyclohexyl-4-{3-[1-(2,6-dichloro-3-fluorophenyl)ethyl]-1H-pyrrolo[2,3-b]pyridin-5-yl}benzamide]",1000 to 10000
8,"CC(c1c(Cl)ccc(F)c1Cl)c1c[nH]c2ncc(-c3ccc(N4CCN(C)CC4)cc3)cc12 (centres unmarked) [Example 16, 3-[1-(2,6-Dichloro-3-fluorophenyl)ethyl]-5-[4-(4-methylpiperazin-1-yl)phenyl]-1H-pyrrolo[2,3-b]pyridine]",100 to 1000
9,"CC(c1c(Cl)ccc(F)c1Cl)c1c[nH]c2ncc(-c3ccc(N(C)C)cc3)cc12 (centres unmarked) [Example 11, (4-{3-[1-(2,6-Dichloro-3-fluorophenyl)ethyl]-1H-pyrrolo[2,3-b]pyridin-5-yl}phenyl)dimethylamine]",1000 to 10000
10,"CC(c1c(Cl)ccc(F)c1Cl)c1c[nH]c2ncc(-c3ccsc3)cc12 (centres unmarked) [Example 9, 3-[1-(2,6-Dichloro-3-fluorophenyl)ethyl]-5-thiophen-3-yl-1H-pyrrolo[2,3-b]pyridine]",1000 to 10000
11,"CC(c1c(Cl)ccc(F)c1Cl)c1c[nH]c2ncc(-c3ccc(O)cc3)cc12 (centres unmarked) [Example 8, 4-{3-[1-(2,6-Dichloro-3-fluorophenyl)ethyl]-1H-pyrrolo[2,3-b]pyridin-5-yl}phenol]",1000 to 10000

# Target: T1, phosphorylated c-MET (Homo sapiens, UniProt P08581)
# T1 construct: endogenous in cells; host or cells: MKN45
# T1 sequence (P08581 25-1390): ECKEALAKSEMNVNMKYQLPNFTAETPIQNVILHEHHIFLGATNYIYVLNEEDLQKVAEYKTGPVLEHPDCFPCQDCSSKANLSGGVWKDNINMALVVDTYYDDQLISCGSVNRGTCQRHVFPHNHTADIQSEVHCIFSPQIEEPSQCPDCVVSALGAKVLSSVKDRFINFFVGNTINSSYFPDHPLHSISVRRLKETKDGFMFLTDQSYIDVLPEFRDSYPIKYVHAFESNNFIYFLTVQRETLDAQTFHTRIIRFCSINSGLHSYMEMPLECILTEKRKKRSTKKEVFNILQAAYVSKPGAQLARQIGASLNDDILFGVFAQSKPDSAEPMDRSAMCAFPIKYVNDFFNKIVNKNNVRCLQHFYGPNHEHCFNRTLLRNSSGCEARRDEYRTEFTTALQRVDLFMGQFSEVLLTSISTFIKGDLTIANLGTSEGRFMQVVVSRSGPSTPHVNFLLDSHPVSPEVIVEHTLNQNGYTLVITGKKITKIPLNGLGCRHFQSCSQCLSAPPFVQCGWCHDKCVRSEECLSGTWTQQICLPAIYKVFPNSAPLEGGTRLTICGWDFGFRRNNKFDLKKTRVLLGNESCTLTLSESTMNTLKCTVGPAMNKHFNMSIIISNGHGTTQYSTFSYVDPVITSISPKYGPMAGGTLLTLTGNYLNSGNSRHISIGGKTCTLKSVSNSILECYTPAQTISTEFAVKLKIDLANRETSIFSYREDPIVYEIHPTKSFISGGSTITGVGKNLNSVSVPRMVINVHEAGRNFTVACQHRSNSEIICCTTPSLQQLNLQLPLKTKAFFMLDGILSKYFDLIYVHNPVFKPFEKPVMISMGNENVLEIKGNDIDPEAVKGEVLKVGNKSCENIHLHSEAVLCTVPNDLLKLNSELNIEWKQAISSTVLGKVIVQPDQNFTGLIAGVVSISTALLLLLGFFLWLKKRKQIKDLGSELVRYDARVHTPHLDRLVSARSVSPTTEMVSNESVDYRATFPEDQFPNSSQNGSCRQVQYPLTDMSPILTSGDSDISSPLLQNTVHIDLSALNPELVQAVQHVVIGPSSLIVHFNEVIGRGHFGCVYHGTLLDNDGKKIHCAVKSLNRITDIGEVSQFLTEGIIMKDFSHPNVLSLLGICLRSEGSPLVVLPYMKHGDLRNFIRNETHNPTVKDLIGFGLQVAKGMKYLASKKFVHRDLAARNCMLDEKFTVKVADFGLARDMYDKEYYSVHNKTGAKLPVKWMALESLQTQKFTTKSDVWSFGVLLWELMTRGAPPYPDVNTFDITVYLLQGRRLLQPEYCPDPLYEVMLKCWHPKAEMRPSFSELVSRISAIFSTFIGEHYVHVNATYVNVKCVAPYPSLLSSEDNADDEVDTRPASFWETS
# Assay: c-MET cell mechanistic assay (phosphorylated c-MET in MKN45 cells)
# Format: cell-based
# Conditions: MKN45 cell line, four hours incubation, phosphorylated c-MET levels, at least duplicate experiments; read-out: Met mech IC50
# Method: The cellular activity of the compounds of the present invention may be determined by the following procedure. MKN45 cells were plated in Falcon 3072 96-well plates in growth media (RPMI, 10% FBS, 1% L-glutamine) at a density of 5000 cells/well and incubated at 37° C., 5% CO2 overnight. The following day, one-tenth volume of a 10× concentration of compounds was added to the wells in a 6-point dilution series. The dilutions series was composed of an initial 1:5 dilution in DMSO, followed by a 1:10 dilution in growth media, for a final DMSO concentration on cells of 0.5%. Control wells were treated with 0.5% DMSO. The typical range of dilution was 10 μM to 3 nM. Once compound was added to the cells, plates were incubated for four hours at 37° C., 5% CO2. Plates were then washed in PBS, and lysed in triton-based lysis buffer. Lysates were transferred to a precoated capture plate made by Biosource (Cat # KH00281). The phosphorylated c-MET levels were measured by incubating with a rabbit polyclonal antibody against phosphorylated c-MET ([pYpYpY1230/1234/1235]) followed by an anti-rabbit antibody conjugated to HRP. Signal was measured on a Wallac Victor plate reader at 450 nm. The DMSO signal of the control wells was defined as 100% and the percent of inhibition of phosphorylated c-Met was expressed as percent of control. IC50 values were determined from the percent of control data using a standard four-parameter model.
# as §1, with “in a c-MET cell mechanistic” for “in a cell proliferation”, “c-MET cell mechanistic assay using” for “a cell proliferation assay using”, “in Table 3: A, IC50≦0.1” for “in Table 2: A, IC50≦0.1”, “of Table 3 corresponds to” for “of Table 2 corresponds to”
row,Compound,IC50 [nM]
1,"CC(c1c(Cl)ccc(F)c1Cl)c1c[nH]c2ncc(C3=CCN(S(N)(=O)=O)CC3)cc12 (centres unmarked) [Example 46, 4-{3-[1-(2,6-Dichloro-3-fluorophenyl)ethyl]-1H-pyrrolo[2,3-b]pyridin-5-yl}-3,6-dihydro-2H-pyridine-1-sulfonic acid amide]",100 to 1000
2,"C[C@H](c1c(Cl)ccc(F)c1Cl)c1c[nH]c2ncc(-c3ccncc3)cc12 [Example 68, 3-[(S)-1-(2,6-Dichloro-3-fluorophenyl)ethyl]-5-pyridin-4-yl-1H-pyrrolo[2,3-b]pyridine]",100 to 1000
3,"C[C@H](c1c(Cl)ccc(F)c1Cl)c1c[nH]c2ncc(-c3cnn([C@H]4CC[C@@H](O)CC4)c3)cc12 [Example 87, cis-4-(4-{3-[(1S)-1-(2,6-dichloro-3-fluorophenyl)ethyl]-1H-pyrrolo[2,3-b]pyridin-5-yl}-1H-pyrazol-1-yl)cyclohexanol]",≤ 100
4,"C[C@H](c1c(Cl)ccc(F)c1Cl)c1c[nH]c2ncc(-c3cnn(CC(=O)O)c3)cc12 [Example 74, (4-{3-[(S)-1-(2,6-Dichloro-3-fluorophenyl)ethyl]-1H-pyrrolo[2,3-b]pyridin-5-yl}-pyrazol-1-yl)-acetic acid]",100 to 1000
5,"C[C@H](c1c(Cl)ccc(F)c1Cl)c1c[nH]c2ncc(-c3cnn([C@H]4CC[C@H](O)CC4)c3)cc12 [Example 86, trans-4-(4-{3-[(1S)-1-(2,6-dichloro-3-fluorophenyl)ethyl]-1H-pyrrolo[2,3-b]pyridin-5-yl}-1H-pyrazol-1-yl)cyclohexanol]",≤ 100
6,"3-[1-(2,6-Dichloro-3-fluorophenyl)ethyl]-5-[1-(1-methanesulfonylpiperidin-4-yl)-1H-pyrazol-4-yl]-1H-pyrrolo[2,3-b]pyridine [Example 37]",100 to 1000
7,"CC(c1c(Cl)ccc(F)c1Cl)c1c[nH]c2ncc(-c3cnn(C4CCN(S(N)(=O)=O)CC4)c3)cc12 (centres unmarked) [Example 52, 4-(4-{3-[1-(2,6-Dichloro-3-fluorophenyl)ethyl]-1H-pyrrolo[2,3-b]pyridin-5-yl}-pyrazol-1-yl)-piperidine-1-sulfonic acid amide]",100 to 1000
8,"C[C@@H](c1c(Cl)ccc(F)c1Cl)c1c[nH]c2ncc(-c3cnn(C4CCN(C=O)CC4)c3)cc12 [Example 82, 4-(4-{3-[(R)-1-(2,6-Dichloro-3-fluorophenyl)ethyl]-1H-pyrrolo[2,3-b]-pyridin-5-yl}-pyrazol-1-yl)-piperidine-1-carbaldehyde]",100 to 1000
9,"C[C@@H](c1c(Cl)ccc(F)c1Cl)c1c[nH]c2ncc(-c3cnn(C4CCN(C(N)=O)CC4)c3)cc12 [Example 84, 4-(4-{3-[(R)-1-(2,6-Dichloro-3-fluorophenyl)ethyl]-1H-pyrrolo[2,3-b]-pyridin-5-yl}-pyrazol-1-yl)-piperidine-1-carboxamide]",1000 to 10000
10,"COC(=O)N1CC=C(c2cnc3[nH]cc(C(C)c4c(Cl)ccc(F)c4Cl)c3c2)CC1 (centres unmarked) [Example 35, 4-{3-[1-(2,6-Dichloro-3-fluorophenyl)-ethyl]-1H-pyrrolo[2,3-b]pyridin-5-yl}-3,6-dihydro-2H-pyridine-1-carboxylic acid methyl ester]",100 to 1000
11,"CC(c1c(Cl)ccc(F)c1Cl)c1c[nH]c2ncc(-c3cn(C)cn3)cc12 (centres unmarked) [Example 54, 3-[1-(2,6-Dichloro-3-fluorophenyl)ethyl]-5-(1-methyl-1H-imidazol-4-yl)-1H-pyrrolo[2,3-b]pyridine]",100 to 1000
12,"C[C@@H](c1c(Cl)ccc(F)c1Cl)c1c[nH]c2ncc(-c3cnn(C4CCN(S(C)(=O)=O)CC4)c3)cc12 [Example 83, 3-[(R)-1-(2,6-Dichloro-3-fluorophenyl)ethyl]-5-[1-(1-methane-sulfonylpiperidin-4-yl)-1H-pyrazol-4-yl]-1H-pyrrolo[2,3-b]pyridine]",1000 to 10000
13,"C[C@H](c1c(Cl)ccc(F)c1Cl)c1c[nH]c2ncc(C3=CCCNC3)cc12 [Example 66, 3-[(S)-1-(2,6-Dichloro-3-fluorophenyl)ethyl]-5-(1,2,5,6-tetrahydropyridin-3-yl)-1H-pyrrolo[2,3-b]pyridine]",100 to 1000
14,"CNC(=O)N1CC=C(c2cnc3[nH]cc(C(C)c4c(Cl)ccc(F)c4Cl)c3c2)CC1 (centres unmarked) [Example 34, 4-{3-[1-(2,6-Dichloro-3-fluorophenyl)ethyl]-1H-pyrrolo[2,3-b]pyridin-5-yl}-3,6-dihydro-2H-pyridine-1-carboxylic acid methylamide]",100 to 1000
15,CC(c1c(Cl)ccc(F)c1Cl)c1c[nH]c2ncc(C3=CCN(C(=O)C(O)C(F)(F)F)CC3)cc12 (centres unmarked) [Example 44],100 to 1000
